From patent US9963464B2, “Macrocyclic compounds” (Bayer Pharma Aktiengesellschaft, priority 2014, dated 2018) come the findings set out here.

Read-outs that look alike come from different tables or passages of the source. Where only a bound is given, the exact number is not on record here.

One assay deals with HeLa-MaTu-ADR cells. As to the kind of experiment: Proliferation assay HeLa-MaTu-ADR. It is filed as cell-based, human. As to conditions: 4 days, crystal violet, read-out: Inhibition of HeLa-MaTu-ADR cell proliferation IC50. The protocol: (§1) Cultivated tumour cells (HeLa, human cervical tumour cells, ATCC CCL-2; NCI-H460, human non-small cell lung carcinoma cells, ATCC HTB-177; A2780, human ovarian carcinoma cells, ECACC #93112519; DU 145, hormone-independent human prostate carcinoma cells, ATCC HTB-81; HeLa-MaTu-ADR, multidrug-resistant human cervical carcinoma cells, EPO-GmbH Berlin; Caco-2, human colorectal carcinoma cells, ATCC HTB-37; B16F10, mouse melanoma cells, ATCC CRL-6475) were plated at a density of 5,000 cells/well (DU145, HeLa-MaTu-ADR), 3,000 cells/well (NCI-H460, HeLa), 2,500 cells/well (A2780), 1,500 cells/well (Caco-2), or 1,000 cells/well (B16F10) in a 96-well multititer plate in 200 μL of their respective growth medium supplemented 10% fetal calf serum. After 24 hours, the cells of one plate (zero-point plate) were stained with crystal violet (see below), while the medium of the other plates was replaced by fresh culture medium (200 μl), to which the test substances were added in various concentrations (0 μM, as well as in the range of 0.001-10 μM). The cells were incubated for 4 days in the presence of test substances. Cell proliferation was determined by staining the cells with crystal violet: the cells were fixed by adding 20 μl/measuring point of an 11% glutaric aldehyde solution for 15 minutes at room temperature. After three washing cycles of the fixed cells with water, the plates were dried at room temperature. The cells were stained by adding 100 μl/measuring point of a 0.1% crystal violet solution (pH 3.0). After three washing cycles of the stained cells with water, the plates were dried at room temperature. The dye was dissolved by adding 100 μl/measuring point of a 10% acetic acid solution. The extinction was determined by photometry at a wavelength of 595 nm. The change of cell number, in percent, was calculated by normalization of the measured values to the extinction values of the zero-point plate (=0%) and the extinction of the untreated (0 μm) cells (=100%). The IC50 values (inhibitory concentration at 50% of maximal effect) were determined by means of a 4 parameter fit. Non-adherent MOLM-13 human acute myeloid leukemia cells (DSMZ ACC 554) were seeded at a density of 5,000 cells/well in a 96-well multititer plate in 100 μL of growth medium supplemented 10% fetal calf serum. After 24 hours, cell viability of one plate (zero-point plate) was determined with the Cell Titre-Glo Luminescent Cell Viability Assay (Promega), while 50 μL of test compound containing medium was added to the wells of the other plates (final concentrations in the range of 0.001-1 μM and DMSO controls). Cell viability was assessed after 72-hour exposure with the Cell Titre-Glo Luminescent Cell Viability Assay (Promega). IC50 values (inhibitory concentration at 50% of maximal effect) were determined by means of a 4 parameter fit on measurement data which were normalized to vehicle (DMSO) treated cells (=100%) and measurement readings taken immediately before compound exposure (=0%).

The subject of another assay is NCI-H460 cells. As to the kind of experiment: Proliferation assay NCI-H460. Particulars: 4 days, crystal violet, read-out: Inhibition of NCI-H460 cell proliferation IC50. The assay is classed as cell-based, human. The method, then:
as §1

In the next assay the target is T1, CDK9/CycT1 (Homo sapiens, UniProt P50750).
T1 construct: Recombinant full-length His-tagged human CDK9 and CycT1; His; purchased Invitrogen PV4131; host or cells: insect cells
T1 sequence (P50750 whole entry): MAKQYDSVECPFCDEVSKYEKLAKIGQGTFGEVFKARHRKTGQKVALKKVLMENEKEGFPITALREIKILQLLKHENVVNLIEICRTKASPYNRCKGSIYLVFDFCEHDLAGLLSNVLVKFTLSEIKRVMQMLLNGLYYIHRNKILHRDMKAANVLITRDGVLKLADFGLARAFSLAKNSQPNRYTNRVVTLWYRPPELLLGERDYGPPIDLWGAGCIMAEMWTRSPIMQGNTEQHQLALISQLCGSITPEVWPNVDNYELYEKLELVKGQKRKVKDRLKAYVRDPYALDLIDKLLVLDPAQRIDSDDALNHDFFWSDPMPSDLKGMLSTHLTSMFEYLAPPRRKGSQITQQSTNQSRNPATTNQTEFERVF
T1 sequence (O60563 whole entry partner): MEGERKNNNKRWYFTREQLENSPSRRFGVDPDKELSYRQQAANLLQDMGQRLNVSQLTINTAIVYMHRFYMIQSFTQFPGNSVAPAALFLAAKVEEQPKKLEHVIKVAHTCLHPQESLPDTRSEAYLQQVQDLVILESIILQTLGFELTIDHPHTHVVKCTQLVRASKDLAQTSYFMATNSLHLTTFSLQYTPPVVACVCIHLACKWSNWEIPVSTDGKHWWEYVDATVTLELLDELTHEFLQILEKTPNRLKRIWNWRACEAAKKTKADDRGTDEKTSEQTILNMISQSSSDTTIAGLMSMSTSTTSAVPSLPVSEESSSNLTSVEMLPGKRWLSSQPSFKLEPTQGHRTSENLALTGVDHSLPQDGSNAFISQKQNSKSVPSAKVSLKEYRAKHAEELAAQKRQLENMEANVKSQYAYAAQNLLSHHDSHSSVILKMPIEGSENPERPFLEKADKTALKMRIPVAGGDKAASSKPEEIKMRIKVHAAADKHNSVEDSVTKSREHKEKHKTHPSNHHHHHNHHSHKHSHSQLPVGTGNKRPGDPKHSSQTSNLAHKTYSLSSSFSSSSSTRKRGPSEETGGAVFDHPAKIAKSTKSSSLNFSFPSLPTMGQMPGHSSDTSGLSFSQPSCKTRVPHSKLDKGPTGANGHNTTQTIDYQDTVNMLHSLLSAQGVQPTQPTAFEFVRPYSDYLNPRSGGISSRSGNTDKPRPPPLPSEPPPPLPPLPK
As to the kind of experiment: CDK9/CycT1 high ATP kinase assay (TR-FRET, Method 1b). It is filed as biochemical. As to conditions: for IC50: Method 1b, 2 mM ATP; for Selectivity high ATP CDK9 over high ATP CDK2: IC50 (high ATP CDK2)/IC50 (high ATP CDK9): Methods 1b and 2b, minimal values where CDK9 IC50 is at the assay limit. The protocol:
1b. CDK9/CycT1 High ATP Kinase Assay
CDK9/CycT1-inhibitory activity of compounds of the present invention at a high ATP concentration after preincubation of enzyme and test compounds was quantified employing the CDK9/CycT1 TR-FRET assay as described in the following paragraphs.
Recombinant full-length His-tagged human CDK9 and CycT1, expressed in insect cells and purified by Ni-NTA affinity chromatography, were purchase from Invitrogen (Cat. No PV4131). As substrate for the kinase reaction biotinylated peptide biotin-Ttds-YISPLKSPYKISEG (C-terminus in amid form) was used which can be purchased e.g. from the company JERINI peptide technologies (Berlin, Germany). For the assay 50 nl of a 100 fold concentrated solution of the test compound in DMSO was pipetted into a black low volume 384 well microtiter plate (Greiner Bio-One, Frickenhausen, Germany), 2 μl of a solution of CDK9/CycT1 in aqueous assay buffer [50 mM Tris/HCl pH 8.0, 10 mM MgCl2, 1.0 mM dithiothreitol, 0.1 mM sodium ortho-vanadate, 0.01% (v/v) Nonidet-P40 (Sigma)] were added and the mixture was incubated for 15 min at 22° C. to allow pre-binding of the test compounds to the enzyme before the start of the kinase reaction. […] The concentration of CDK9/CycT1 was adjusted depending of the activity of the enzyme lot and was chosen appropriate to have the assay in the linear range, typical concentrations were in the range of 0.5 μg/mL. The reaction was stopped by the addition of 5 μl of a solution of TR-FRET detection reagents (0.2 μM streptavidine-XL665 [Cisbio Bioassays, Codolet, France] and 1 nM anti-RB(pSer807/pSer811)-antibody from BD Pharmingen [#558389] and 1.2 nM LANCE EU-W1024 labeled anti-mouse IgG antibody [Perkin-Elmer, product no. AD0077]) in an aqueous EDTA-solution (100 mM EDTA, 0.2% (w/v) bovine serum albumin in 100 mM HEPES pH 7.5).
The resulting mixture was incubated 1 h at 22° C. to allow the formation of complex between the phosphorylated biotinylated peptide and the detection reagents. Subsequently the amount of phosphorylated substrate was evaluated by measurement of the resonance energy transfer from the Eu-chelate to the streptavidine-XL. Therefore, the fluorescence emissions at 620 nm and 665 nm after excitation at 350 nm was measured in a HTRF reader, e.g. a Rubystar (BMG Labtechnologies, Offenburg, Germany) or a Viewlux (Perkin-Elmer). The ratio of the emissions at 665 nm and at […] was taken as the measure for the amount of phosphorylated substrate. The data were normalised (enzyme reaction without inhibitor=0% inhibition, all other assay components but no enzyme=100% inhibition).
A general note: In TR-FRET formats the signal depends on donor and acceptor labels being close together.

Another assay relates to Caco-2 cells. As to the kind of experiment: Proliferation assay Caco-2. The assay is classed as cell-based, human. Particulars: 4 days, crystal violet, read-out: Inhibition of Caco-2 cell proliferation IC50. The method, then:
as §1

As to `CS(=O)(Cc1cc2nc(c1)OCCCOc1cc(F)ccc1-c1cc(ncc1F)N2)=NS(=O)(=O)CCN` (racemic) [Example 23, (rac)-2-amino-N-[{[15,19-difluoro-3,4-dihydro-2H,11H-10,6-(azeno)-12,16-(metheno)-1,5,11,13-benzodioxadiazacyclooctadecin-8-yl]methyl}(methyl)oxido-λ^6-sulfanylidene]ethanesulfonamide], the IC50 is 0.396 µM in the assay with HeLa-MaTu-ADR cells (Homo sapiens, 96 h); 0.741 µM with NCI-H460 cells (Homo sapiens, NCI-H460, 96 h); 0.0039 µM against CDK9/CycT1; 0.422 µM in the assay with Caco-2 cells (Homo sapiens, Caco-2, 96 h). The “Selectivity high ATP CDK9 over high ATP CDK2: IC50 (high ATP CDK2)/IC50 (high ATP CDK9)” value (“Selectivity high ATP CDK9” for short) on CDK9/CycT1 amounted to 69.5.
On to `CS(=O)(Cc1cc2nc(c1)OCCCOc1cc(F)ccc1-c1cc(ncc1F)N2)=NS(=O)(=O)CCN.O=C(O)C(F)(F)F` (racemic) [Example 24, (rac)-2-{[{[15,19-difluoro-3,4-dihydro-2H,11H-10,6-(azeno)-12,16-(metheno)-1,5,11,13-benzodioxadiazacyclooctadecin-8-yl]methyl}(methyl)oxido-λ^6-sulfanylidene]sulfamoyl}ethanaminium trifluoroacetate], for which the IC50 with HeLa-MaTu-ADR cells (trifluoroacetate) worked out at 0.21 µM; in the assay with NCI-H460 cells (trifluoroacetate), 0.391 µM; against CDK9/CycT1, 0.0018 µM; with Caco-2 cells (trifluoroacetate), 0.267 µM. The “Selectivity high ATP CDK9” value at CDK9/CycT1 was found to be 90.4.
With `CS(=O)(Cc1cc2nc(c1)OCCCOc1cc(F)ccc1-c1cc(ncc1F)N2)=NC(=O)OCCN` (racemic) [Example 25, (rac)-2-aminoethyl [{[15,19-difluoro-3,4-dihydro-2H,11H-10,6-(azeno)-12,16-(metheno)-1,5,11,13-benzodioxadiazacyclooctadecin-8-yl]methyl}(methyl)oxido-λ^6-sulfanylidene]carbamate], the IC50 in the assay with HeLa-MaTu-ADR cells (Homo sapiens, 96 h) was 0.032 µM; with NCI-H460 cells (Homo sapiens, NCI-H460, 96 h), 0.109 µM; against CDK9/CycT1, 0.003 µM; in the assay on Caco-2 cells (Homo sapiens, Caco-2, 96 h), 0.047 µM. The “Selectivity high ATP CDK9” value at CDK9/CycT1 is 6.1.
With `CS(=N)(=O)Cc1cc2nc(c1)OCCCOc1cc(F)ccc1-c1cc(ncc1F)N2` (single isomer, unassigned; enantiomer 1) [Example 6, 15,19-Difluoro-8-[(S-methylsulfonimidoyl)methyl]-3,4-dihydro-2H,11H-10,6-(azeno)-12,16-(metheno)-1,5,11,13-benzodioxadiazacyclooctadecine; Enantiomer 1], the IC50 was 0.005 µM with HeLa-MaTu-ADR cells (Homo sapiens, 96 h); 0.014 µM in the assay on NCI-H460 cells (Homo sapiens, NCI-H460, 96 h); 0.0011 µM against CDK9/CycT1; 0.005 µM with Caco-2 cells (Homo sapiens, Caco-2, 96 h). Further, the “Selectivity high ATP CDK9” value on CDK9/CycT1 is listed as 35.4.
Consider `CS(=N)(=O)Cc1cc2nc(c1)OCCCOc1cc(F)ccc1-c1cc(ncc1F)N2` (single isomer, unassigned; enantiomer 2) [Example 7, 15,19-Difluoro-8-[(S-methylsulfonimidoyl)methyl]-3,4-dihydro-2H,11H-10,6-(azeno)-12,16-(metheno)-1,5,11,13-benzodioxadiazacyclooctadecine; Enantiomer 2], for which the IC50 was 0.005 µM in the assay with HeLa-MaTu-ADR cells, 0.017 µM in the assay with NCI-H460 cells, 0.0026 µM at CDK9/CycT1 and 0.006 µM in the assay on Caco-2 cells. Further, at CDK9/CycT1, the “Selectivity high ATP CDK9” value is 19.5.
For the molecule `CSCc1cc2cc(c1)OCCCOc1cc(F)ccc1-c1nc(ncc1F)N2` [Example 2, 15,19-Difluoro-8-[(methylsulfanyl)methyl]-3,4-dihydro-2H,11H-12,16-(azeno)-10,6-(metheno)-1,5,11,13-benzodioxadiazacyclooctadecine], the IC50 with HeLa-MaTu-ADR cells (Homo sapiens, 96 h) worked out at 0.077 µM; in the assay on NCI-H460 cells (Homo sapiens, NCI-H460, 96 h), 0.056 µM; on CDK9/CycT1 it was 0.0043 µM; in the assay with Caco-2 cells (Homo sapiens, Caco-2, 96 h) it was 0.03 µM. At CDK9/CycT1, the “Selectivity high ATP CDK9” value amounted to 149.6.
In the same order, the values of `CSCc1cc2nc(c1)OCCCOc1cc(F)ccc1-c1cc(ncc1F)N2` [Example 3, 15,19-Difluoro-8-[(methylsulfanyl)methyl]-3,4-dihydro-2H,11H-10,6-(azeno)-12,16-(metheno)-1,5,11,13-benzodioxadiazacyclooctadecine] are 0.07 µM, 0.039 µM, 0.0046 µM, under 0.03 µM and 28.2.
In the same order, the values of `CS(=O)(=O)Cc1cc2nc(c1)OCCCOc1cc(F)ccc1-c1cc(ncc1F)N2` [Example 8, 15,19-difluoro-8-[(methylsulfonyl)methyl]-3,4-dihydro-2H,11H-10,6-(azeno)-12,16-(metheno)-1,5,11,13-benzodioxadiazacyclooctadecine] are 0.009 µM, 0.02 µM, 0.0023 µM, 0.011 µM and 14.9.
`CSCc1cc2nc(c1)OCCCCOc1cc(F)ccc1-c1cc(ncc1F)N2` [Example 12, 16,20-Difluoro-9-[(methylsulfanyl)methyl]-2,3,4,5-tetrahydro-12H-11,7-(azeno)-13,17-(metheno)-1,6,12,14-benzodioxadiazacyclononadecine]: the IC50 is 0.207 µM in the assay with HeLa-MaTu-ADR cells (Homo sapiens, 96 h); 0.063 µM in the assay on NCI-H460 cells (Homo sapiens, NCI-H460, 96 h); 0.0118 µM on CDK9/CycT1; 0.061 µM in the assay with Caco-2 cells (Homo sapiens, Caco-2, 96 h). At CDK9/CycT1, the “Selectivity high ATP CDK9” value is on record as 75.7.
